Experimental findings from patent US11458138B2 (Novartis AG, priority 2017, dated 2022) are described below.

One assay relates to CTGF mRNA in liver. In words: In vivo treatment of mice: quantitative RT-PCR, CTGF. The conditions noted are these: mouse liver, single oral dose 10 mg/kg, 2 h post-dose, relative to vehicle, mean+/-SEM. The protocol:
(§1) All animal studies were carried out in accordance with federal, state, local and institutional guidelines governing the use of laboratory animals in research. Male C57BL/6J mice (age 8-10 weeks) were purchased from Jackson Labs (Bar Harbor, Me.). Example 46 was formulated for oral dosing at 3 mg/ml, and Example 261 at 1 mg/ml, in a suspension of methylcellulose:Tween80:Water (0.5:0.5:99). Single oral dose of either compound was at 10 mL/kg body weight. Blood and liver tissue were collected under deep anesthesia (isoflurane) at either 2 h post-dose (for mRNA analysis) or 24 h post-dose (for immunohistochemistry).
Total liver RNA was isolated from tissue after storage in RNAlater reagent (Qiagen), using a TRIzol method according to the manufacturer's instructions (Life Technologies). Relative mRNA abundance was measured by quantitative RT-PCR using TaqMan gene expression assays and reagents according to standard protocols (Applied Biosystems). Mouse probes for YAP target genes were CTGF (Mm01192933_g1) and Cyr61 (Mm00487498_m1). […] Relative changes in mRNA were calculated by the ΔΔCt method. Changes in gene expression with compound treatment are expressed as fold-change relative to the vehicle group.

Assay [1] concerns Phospho-YAP (SER127) in liver tissue. In words: In vivo treatment of mice: Phospho-YAP (pYAP) HTRF in liver tissue. Conditions: mouse liver, single oral dose 10 mg/kg. As for the experimental part: as §1
Frozen liver tissue was transferred into a Lysing Matrix tube (MP, cat #6913-500) with a 1:50 solution of Protease inhibitor (Sigma-Aldrich, cat #P8340) in Phosphosafe extraction buffer (Novagen, cat #71296-3) and homogenized using the FastPrep-24 (MP biomedicals). […] The protein concentration was measured using the BCA Protein Assay Kit (Pierce cat. 23227) following the manufacturer's protocol. […] The same input quantity was used for each sample, based on total protein content (30-60 ug per sample per well). […] Plates were read on an EnVision (PerkinElmer) with emission wavelengths of 665 nm & 620 nm. The HTRF signal ratio was calculated as Signal(665 nm)/Signal(620 nm))×10000 as specified in the manufacturer's protocol. […]
(In general: Time-resolved FRET reads energy transfer from a long-lived donor to a nearby acceptor.)

The subject of the next assay is mouse dorsal skin. The assay can be described thus: In Vivo Histology and Ki67 Staining Assay (skin cell proliferation). Conditions: intact mouse dorsal skin, topical, three days of twice-a-day dosing, vs vehicle. The protocol:
Further, the compounds of the invention increase skin cell proliferation in vivo when applied topically. The study was conducted as described the “In Vivo Histology and Ki67 Staining Assay” in the Examples Section A. Example 133 or vehicle were applied to intact mouse dorsal skin. After three days of twice-a-day dosing, the skin samples were collected and subjected to immunohistology staining for Ki67. The sections were evaluated visually for cell proliferation and for the abundance of Ki67 positive cells. The study results are documented in FIGS. 35A and 35B.
FIG. 35B compares the abundance of Ki67 positive cell in untreated and treated mouse skin. […] Also, by using siRNA to knockdown both LATS1 and LATS2, LATS as a negative regulator of the YAP pathway has also been validated.

In assay [2] the test system is human corneal endothelial cells (CECs). The assay can be described thus: CEC population expansion, markers Collagen 8a2, AQP1, SLC4A11, RPE65, CD31 and Na/K ATPase (RT-PCR, immunohistochemistry). The class given is cell-based. The conditions noted are these: 10 micromolar, 10 days. The protocol:
In order to verify that the expanded cell population expresses genes normally expressed by corneal endothelial cells in vivo, cells were cultured and RT-PCR analysis was then performed to measure the expression levels of Collagen 8a2, AQP1, SLC4A11, RPE65 and CD31. Immunohistochemical analysis was also performed to analyse the levels of Na/K ATPase and Collagen 8a2 as follows.
Cells were cultured at 37° C. in 5% CO2 for 10 days.
To perform the RT-PCR analysis, total RNA was extracted using Trizol (Invitrogen), RNeasy Mini and QIA Shredder (Qiagen) according to manufacturer's protocol. RNA quality and quantity were measured using Nanodrop 100 (Thermo-Fisher Scientific) and Bioanalyzer 2100 (Agilent Technologies). cDNA was prepared by reverse transcription and relative mRNA expression was assessed by quantitative RT-PCR using an 7900HT system (Applied Biosystems). The following cycling parameters were used:
1) 50° C. for 2 minutes; 2) 95° C. for 10 minutes; 3) 95° C. for 15 seconds 4) 60° C. for 1 minute. Steps 3-4 were repeated 40 times.
Actin mRNA levels were measured and used as a endogenous controls to normalize gene expression levels and calculate delta Ct values according to the formula dCt=Ct for gene of interest−Ct for endogenous control. Primers were obtained from Applied Biosystems. […]

The structures appear in SMILES notation. Entries after “also recorded” stand apart in the source; their conditions may differ.

Consider `CC(C)(C)Nc1cc(-c2ccncc2)nc2cnccc12` [Example 261, N-(tert-butyl)-2-(pyridin-4-yl)-1,7-naphthyridin-4-amine], for which the “CTGF mRNA (fold-change)” value with CTGF mRNA in liver is recorded as 2.5 (+/−0.2) fold-change. Besides, the “pYAP (% of control)” value in assay [1] is 60 % of control. For `Cc1n[nH]cc1-c1nc(NC2(C)CC2)c2ccncc2n1` [Example 133, 2-(3-methyl-1H-pyrazol-4-yl)-N-(1-methylcyclopropyl)pyrido[3,4-d]pyrimidin-4-amine], in the assay on mouse dorsal skin, the “abundance of Ki67 positive cells” value came to 10%; the “basal cell proliferation and epidermal thickness” value was “significant increase in basal cell proliferation and epidermal thickness; also recorded: increased basal layer skin cell growth”.

Consider `CC(C)(O)CC(C)(C)Nc1nc(-c2ccncc2)nc2cnccc12` [Example 49, 2,4-dimethyl-4-{[2-(pyridin-4-yl)pyrido[3,4-d]pyrimidin-4-yl]amino}pentan-2-ol], for which the “Expression of corneal endothelial cell genes by the expanded CEC population” value in assay [2] is listed as “express genes normally expressed by corneal endothelial cells in vivo, including Collagen 8a2, AQP1, SLC4A11; also recorded: express genes normally expressed by corneal endothelial cells in vivo, including Na/K ATPase”.
